# From patent US7173004B2, “Macrocyclic isoquinoline peptide inhibitors of hepatitis C virus” (Bristol-Myers Squibb Company, priority 2003, dated 2007)
# Read-outs that look alike come from different tables or passages of the source.
# How the values were obtained:
# Type in all cases: biochemical
# [1] = biological target: T1, HCV NS3/4A protease complex, BMS strain (genotype 1a) (UniProt P27958, C1454S/C1711G, species not given/STRAIN_BMS); assay: Recombinant HCV NS3/4A protease complex FRET peptide assay, BMS strain
# T1 construct: b1001: DNA encoding the recombinant HCV NS3/4A protease complex (amino acids 1027 to 1711) ... a three-lysine solubilizing tail was added at the 3′-end of the NS4A coding region; fused on or other part: Three-lysine solubilising tail at the C-terminus of NS4A; A His tag is implied by the pET21b vector and Ni-NTA purification
# Outline: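 Recombinant NS3/4A (aa 1027–1711) from H77C, J4L6S or BMS strains, with C1454S and C1711G mutations and three-lysine tail, expressed in E. coli and Ni-NTA/gel-filtration purified to >90%. Inhibition of cleavage of a FRET peptide substrate measured.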
# [2] = biological target: T2, HCV NS3/4A protease complex, H77C strain (1a genotype) (Hepatitis C virus genotype 1a, UniProt P27958, C1454S); assay: Recombinant HCV NS3/4A protease complex FRET peptide assay, H77C strain
# T2 construct: DNA encoding the recombinant HCV NS3/4A protease complex (amino acids 1027 to 1711) for these strains; His tag (inferred from Ni-NTA purification and pET21b vector); made in house; host or cells: Escherichia coli BL21 (DE3)
# From the text: (§1) Recombinant HCV NS3/4A Protease Complex FRET Peptide Assay
# (§2) The purpose of this in vitro assay was to measure the inhibition of HCV NS3 protease complexes, derived from the BMS strain, H77C strain or J416S strain, as described below, by compounds of the present invention. This assay provides an indication of how effective compounds of the present invention would be in inhibiting HCV proteolytic activity.
# (§3) Serum from an HCV-infected patient was obtained from Dr. T. Wright, San Francisco Hospital. An engineered full-length cDNA (compliment deoxyribonucleic acid) template of the HCV genome (BMS strain) was constructed from DNA fragments obtained by reverse transcription-PCR (RT-PCR) of serum RNA (ribonucleic acid) and using primers selected on the basis of homology between other genotype 1a strains. From the determination of the entire genome sequence, a genotype 1a was assigned to the HCV isolate according to the classification of Simmonds et al. (See P Simmonds, K A Rose, S Graham, S W Chan, F McOmish, B C Dow, E A Follett, P L Yap and H Marsden, J. Clin. Microbiol., 31(6), 1493–1503 (1993)). […]
# [3] = biological target: T3, HCV NS3/4A protease complex, J4L6S strain (1b genotype) (Hepatitis C virus genotype 1b, UniProt O92972, C1454S/C1711G); assay: Recombinant HCV NS3/4A protease complex FRET peptide assay, J4L6S strain
# T3 construct: DNA encoding the recombinant HCV NS3/4A protease complex (amino acids 1027 to 1711) for these strains; His tag (inferred from Ni-NTA purification and pET21b vector); made in house; host or cells: Escherichia coli BL21 (DE3)
# From the text: as §1, §2, §3
# [4] = NS3/4A BMS strain, activity range symbols
# T2 sequence (P27958 1027-1657 C1454S): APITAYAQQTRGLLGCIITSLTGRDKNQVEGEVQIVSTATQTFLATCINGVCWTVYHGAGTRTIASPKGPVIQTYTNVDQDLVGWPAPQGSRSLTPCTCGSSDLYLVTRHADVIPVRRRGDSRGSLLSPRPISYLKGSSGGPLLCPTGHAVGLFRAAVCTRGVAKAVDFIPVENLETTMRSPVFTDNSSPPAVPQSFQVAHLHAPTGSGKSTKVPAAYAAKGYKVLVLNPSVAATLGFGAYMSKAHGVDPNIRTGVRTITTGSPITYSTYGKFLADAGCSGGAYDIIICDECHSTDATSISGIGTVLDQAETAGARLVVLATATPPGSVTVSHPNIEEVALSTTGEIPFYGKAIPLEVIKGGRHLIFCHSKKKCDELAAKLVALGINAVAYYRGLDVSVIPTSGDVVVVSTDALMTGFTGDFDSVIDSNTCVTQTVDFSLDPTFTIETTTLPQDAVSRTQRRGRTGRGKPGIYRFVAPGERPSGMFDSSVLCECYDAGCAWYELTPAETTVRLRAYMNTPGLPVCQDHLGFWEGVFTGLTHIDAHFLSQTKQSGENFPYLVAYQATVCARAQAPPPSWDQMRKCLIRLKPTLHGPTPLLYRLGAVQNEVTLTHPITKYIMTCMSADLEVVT
# T2 sequence (P27958 1658-1714 partner, looked up, stated change not applied): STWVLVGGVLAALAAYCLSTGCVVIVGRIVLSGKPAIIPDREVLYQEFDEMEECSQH
# T3 sequence (O92972 1027-1711 C1454S/C1711G, one chain of several): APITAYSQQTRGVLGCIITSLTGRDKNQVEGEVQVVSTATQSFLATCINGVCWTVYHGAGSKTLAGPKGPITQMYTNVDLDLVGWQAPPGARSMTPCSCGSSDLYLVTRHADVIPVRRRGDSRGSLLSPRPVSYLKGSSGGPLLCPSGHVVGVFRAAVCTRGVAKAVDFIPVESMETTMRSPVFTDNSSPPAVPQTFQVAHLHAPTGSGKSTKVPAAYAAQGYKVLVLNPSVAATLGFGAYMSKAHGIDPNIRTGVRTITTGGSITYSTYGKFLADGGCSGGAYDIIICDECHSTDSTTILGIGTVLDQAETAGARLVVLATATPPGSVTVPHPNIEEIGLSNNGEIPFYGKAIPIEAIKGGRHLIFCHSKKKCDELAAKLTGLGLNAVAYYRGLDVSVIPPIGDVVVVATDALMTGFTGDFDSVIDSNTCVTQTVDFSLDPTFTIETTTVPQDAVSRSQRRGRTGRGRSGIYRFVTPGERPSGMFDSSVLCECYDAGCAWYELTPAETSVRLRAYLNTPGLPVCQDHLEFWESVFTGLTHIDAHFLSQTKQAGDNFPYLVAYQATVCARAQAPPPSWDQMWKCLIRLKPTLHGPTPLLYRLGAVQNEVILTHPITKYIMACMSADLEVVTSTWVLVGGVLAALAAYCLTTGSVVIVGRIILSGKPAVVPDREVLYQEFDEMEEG
Compound,"IC50 [1, 4] [nM]",also measured
"CC(C)(C)OC(=O)N[C@H]1CCCCC/C=C\[C@@H]2C[C@@]2(C(=O)NS(C)(=O)=O)NC(=O)[C@@H]2C[C@@H](Oc3nccc4ccccc34)CN2C1=O [Compound 2, [18-(Isoquinolin-1-yloxy)-4-methanesulfonylaminocarbonyl-2,15-dioxo-3,16-diaza-tricyclo[14.3.0.0^4,6]nonadec-7-en-14-yl]-carbamic acid tert-butyl ester]",< 50,"IC50 ([1]; read-out: IC50 against the BMS strain NS3/4A protease in the enzyme assay, BMS strain): 26 nM; IC50 [2]: 4.2 nM; IC50 [3]: 1.9 nM"
COc1ccc2c(OC3CC4C(=O)NC5(C(=O)NS(=O)(=O)C6CC6)CC5C=CCOCCCC(NC(=O)NC(C)(C)C)C(=O)N4C3)nccc2c1 (stereo not shown) [Compound 34],< 50,–
COc1ccc2c(OC3CC4C(=O)NC5(C(=O)NS(=O)(=O)C6(C)CC6)CC5C=CCCCCCC(NC(=O)OC(C)(C)C)C(=O)N4C3)nccc2c1 (stereo not shown) [Compound 53],< 50,–
COc1ccc2c(OC3CC4C(=O)NC5(C(=O)NS(=O)(=O)C6(C)CC6)CC5C=CCOCCCC(NC(=O)OC(C)C)C(=O)N4C3)nccc2c1 (stereo not shown) [Compound 35],< 50,–
CCC1(S(=O)(=O)NC(=O)C23CC2C=CCCCS(=O)(=O)CC(NC(=O)OC(C)(C)C)C(=O)N2CC(Oc4nccc5cc(OC)ccc45)CC2C(=O)N3)CC1 (stereo not shown) [Compound 48],< 50,–
"COC(=O)N[C@H]1CCCCC/C=C\[C@@H]2C[C@@]2(C(=O)NS(=O)(=O)C2CC2)NC(=O)[C@@H]2C[C@@H](Oc3nccc4ccccc34)CN2C1=O [Compound 12, [4-Cyclopropanesulfonylaminocarbonyl-18-(isoquinolin-1-yloxy)-2,15-dioxo-3,16-diaza-tricyclo[14.3.0.0^4,6]nonadec-7-en-14-yl]-carbamic acid methyl ester]",< 50,–
COc1ccc2c(OC3CC4C(=O)NC5(C(=O)NS(=O)(=O)C6(C)CC6)CC5C=CCCCOC(C)C(NC(=O)OC(C)C)C(=O)N4C3)nccc2c1 (stereo not shown) [Compound 68],< 50,–
COc1ccc2c(OC3CC4C(=O)NC5(C(=O)NS(=O)(=O)C6CC6)CC5C=CCCCSCC(NC(=O)OCC(C)(C)C)C(=O)N4C3)nccc2c1 (stereo not shown) [Compound 75],< 50,–
"COc1ccc2c(OC3CC4C(=O)NC5(C(=O)O)CC5C=CCOCCCC(NC(=O)OC(C)(C)C)C(=O)N4C3)nccc2c1 (stereo not shown) [Compound 27, 14-tert-Butoxycarbonylamino-18-(6-methoxy-isoquinolin-1-yloxy)-2,15-dioxo-10-oxa-3,16-diaza-tricyclo[14.3.0.0^4,6]nonadec-7-ene-4-carboxylic acid]",–,"IC50 ([1]; NS3/4A BMS Strain, activity range classes): 50 to 500 nM"
COc1c(NC2CCCCCC=CC3CC3(C(=O)NS(=O)(=O)C3CC3)NC(=O)C3CC(Oc4nccc5ccccc45)CN3C2=O)c(=O)c1=O (stereo not shown) [Compound 21],< 50,–
CCC1(S(=O)(=O)NC(=O)C23CC2C=CCCCOC(C)C(NC(=O)OC(C)(C)C)C(=O)N2CC(Oc4nccc5cc(OC)ccc45)CC2C(=O)N3)CC1 (stereo not shown) [Compound 70],< 50,–
COc1ccc2c(OC3CC4C(=O)NC5(C(=O)NS(=O)(=O)C6(C)CC6)CC5C=CCCCSCC(NC(=O)NC5CCCC5)C(=O)N4C3)nccc2c1 (stereo not shown) [Compound 43],< 50,–
"CC(C)(C)OC(=O)N[C@H]1CCCCC/C=C\[C@@H]2C[C@@]2(C(=O)NS(=O)(=O)C2(C)CC2)NC(=O)[C@@H]2C[C@@H](Oc3nccc4ccccc34)CN2C1=O [Compound 8, [18-(Isoquinolin-1-yloxy)-4-(1-methyl-cyclopropanesulfonylaminocarbonyl)-2,15-dioxo-3,16-diaza-tricyclo[14.3.0.0^4,6]nonadec-7-en-14-yl]-carbamic acid tert-butyl ester]",< 50,–
